The test system of one assay is healthy adult males. Briefly: Incremental loading exercise test with bicycle. The format is in vivo, human. Particulars: compared with no intake of kaempferol. Here is the method:
For 25 healthy adult males, 3 dosages of kaempferol-containing cookie-shaped foods (containing 2.5 mg, 10 mg, or 25 mg of kaempferol, respectively) and a placebo cookie-shaped food (kaempferol-free) were used as test foods, and a once-a-day ingestion for consecutive 8 days were repeated four times by the crossover method. 3 hours after a test food ingestion on day 1 (Single ingestion) and on day 8 (Consecutive ingestion), an incremental loading exercise with bicycle was performed while sampling the exhaled gas to determine the oxygen consumption. The Heart rate and the rating of perceived exertion were monitored during exercise. Dynamic/kinetic visual acuity was measured before and after the exercise. Details of each endpoint are given below. Oxygen consumption (VO2) (mL/min/kg) was calculated from the difference between the amount of oxygen in the inhaled gas (atmosphere) and the amount of oxygen in the exhaled gas. When a weight of the pedal approaches a subject's limit during incremental loading exercise with bicycle, a heart rate (HR) is maximized. The increase in heart rate from the resting heart rate to the maximum heart rate was defined as 100% of exercise intensity, and the oxygen consumption (VO2) was plotted at each exercise intensity. That is, for example, an exercise intensity of 50% HR is calculated by the following equation: 100×(x−Resting heart rate)/(Maximum heart rate−Resting heart rate)=50% HR, and the oxygen consumption (VO2) in which the heart rate is the “x” means “oxygen consumption (VO2) at an exercise intensity of 50% HR”. Oxygen consumption efficiency was calculated by the following equation. Oxygen consumption efficiency (VO2/VE)=oxygen consumption/ventilation The oxygen uptake efficiency slope (OUES) was calculated using the ventilation and VO2 every 1 min from the beginning of the incremental loading exercise. Specifically, a graph of linearity was obtained by plotting “logarithmic value of ventilation (VE)” on the horizontal axis and “VO2” on the vertical axis, and the slope of the linear function graph was defined as OUES. For details, see Non-Patent Document 5. Exercise intensity (% HR) and rating of perceived exertion (RPE) at the oxygen consumption (VO2) of 14 mL/min/kg and 24.5 mL/min/kg in incremental loading exercise (the levels of stair climbing and jogging, respectively) were evaluated. The calculation methods for oxygen consumption (VO2) and exercise intensity (% HR) are the same as those described above. The perceived exertion was rated by the subject according to the following table at 1-minute intervals from the beginning of the incremental loading exercise, and the scales rated by each subject were averaged to give the rating of perceived exertion (RPE).

A further assay has as its system healthy male adults. Briefly: Effect on performance in 400 m run. The format is in vivo, human. The note with it: single ingestion, 10 mg aglycone equivalent, 3 hours before run; placebo group −0.11 seconds. How it is done:
A two-group and two-phase crossover study (single ingestion) was conducted for 13 healthy male adults. In the study, a kaempferol-containing capsule-shaped food (SNR 14) wherein the aglycone equivalent value is 10 mg; and a placebo capsule-shaped food: Placebo (kaempferol free) were used as test foods. Three hours after taking the test food, the subjects sprinted 400 m, and sprinted 400 m again after a 90 minute interval. Respiratory rate and heart rate were monitored during the sprint. The expiratory mouth pressure was measured by the maximum mouth pressure method, before and after the 400 m runs, using an electronic spirometer, autospyro (Minato Medical Science Co., Ltd.). The subjects inhaled to the limit after three deep breaths in a standing position and then exhaled with full force into the mouthpiece for measurement while preventing air leakage from the nose to determine expiratory mouth pressure.

Where [1] appears, read: at oxygen consumption (VO2) of 14 and 24.5 mL/min/kg (stair climbing and jogging levels), single and consecutive ingestion.
Setting [2] is: single ingestion and consecutive ingestion.

As for `O=c1c(O)c(-c2ccc(O)cc2)oc2cc(O)cc(O)c12` [kaempferol], the “oxygen consumption (VO2)” value in the assay on healthy adult males (at all exercise intensities (50%, 60%, 70%, 80%, 90%, and 100% HR), single ingestion and consecutive ingestion (8 days), 2.5, 10 or 25 mg kaempferol cookie) is “increased”. In addition, in the assay on healthy adult males (setting [1]), the “exercise intensity (% HR)” value is reported as “decreased” and the “rating of perceived exertion (RPE)” value is on record as “decreased”. Further, in the assay on healthy adult males (setting [2]), the “maximum exercise load (Pedal Weight (watt))” value is “increased”, the “maximum oxygen consumption (VO2peak)” value is on record as “increased”, the “oxygen consumption efficiency (VO2/VE)” value is given as “increased” and the “oxygen uptake efficiency slope (OUES)” value is on record as “increased”. Further, in the assay on healthy male adults, the “mean time change between the 1st and 2nd 400 m runs” value was -0.77 s.

(Values after patent US12048683B2, “Kaempferol analog-containing composition” (OTSUKA PHARMACEUTICAL CO., LTD., priority 2017, dated 2024).)
